Drawing on patent US8609731B2, “Substituted tetrahydronaphthalenes, process for the preparation thereof and the use thereof as medicaments” (SANOFI, priority 2007, dated 2013), this text covers IC50 for 36 compounds.

The target of this test is T1, human MCH receptor (Homo sapiens, UniProt Q99705).
T1 construct: expressed in transfected cells
Kind of test: calcium mobilization assay (FLIPR); functional IC50 of MCH1R antagonists. To be noted: recombinant HEK293 cell line expressing human MCH receptor; calcium flux after addition of agonist MCH. The class given is cell-based. The source says:
Influence on the MCH Receptor In Vitro; Determination of Functional IC50 Values of MCH1R Antagonists
Cloning of the cDNA for the human MCH receptor, preparation of a recombinant HEK293 cell line which expresses the human MCH receptor, and functional measurements with the recombinant cell line took place in analogy to the description by Audinot et al. (J. Biol. Chem. 2001, 276, 13554-13562). A difference from the reference was, however, the use of the plasmid pEAK8 from EDGE Biosystems (USA) for the construction of the expression vector. The host used for the transfection was a transformed HEK cell line named “PEAK Stable Cells” (likewise from EDGE Biosystems). Functional measurements of the cellular calcium flux after addition of agonist (MCH) in the presence of ligand of the invention took place with the aid of the FLIPR apparatus from Molecular Devices (USA), using protocols of the apparatus manufacturer. The compounds of the invention show a significant inhibition (>30%) of the signal induced by the agonist at a concentration of 100 μM, preferably at 10 μM, particularly preferably at 1 μM, very particularly preferably at 100 nM and very very particularly preferably at 10 nM.
Background: Calcium flux is commonly read through the fluorescence of an indicator in the cells.

T1 sequence (Q99705 whole entry): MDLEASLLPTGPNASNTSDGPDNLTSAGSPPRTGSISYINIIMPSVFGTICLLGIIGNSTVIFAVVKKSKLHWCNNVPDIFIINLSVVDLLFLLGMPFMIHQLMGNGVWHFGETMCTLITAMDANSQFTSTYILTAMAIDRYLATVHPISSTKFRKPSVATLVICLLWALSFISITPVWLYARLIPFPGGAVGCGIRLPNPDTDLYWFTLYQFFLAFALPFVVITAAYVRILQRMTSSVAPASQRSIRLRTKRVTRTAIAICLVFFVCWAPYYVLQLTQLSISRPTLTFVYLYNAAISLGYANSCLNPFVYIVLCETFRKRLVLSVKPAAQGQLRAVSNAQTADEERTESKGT

Usually IC50 stands for the concentration at which inhibition is half-maximal. As for `O=C(N[C@H]1CCc2cc(CN3CCCCCC3)ccc2C1)c1ccc(OCC2CCOCC2)cc1` [Example 9-4], the concentration for half-maximal inhibition (IC50) amounted to 440 nM.
As to `CC(C)(C)CNC(C)(C)c1ccc2c(c1)CC[C@H](NC(=O)c1ccc(OC[C@@H]3CCCO3)cc1)C2` [Example 8-1, N-{(S)-6-[1-(2,2-Dimethylpropylamino)-1-methylethyl]-1,2,3,4-tetrahydro-naphthalen-2-yl}-4-[(S)-1-(tetrahydrofuran-2-yl)methoxy]benzamide], the IC50 came out at 240 nM.
On to `CS(=O)(=O)CCNCc1ccc2c(c1)CC[C@H](NC(=O)c1ccc(OC[C@@H]3CCCO3)cc1)C2` [Example 3-64], for which the half-maximal inhibitory concentration (IC50) turned out to be 180 nM.
With `O=C(N[C@H]1CCc2cc(CNCCCn3ccnc3)ccc2C1)c1ccc(OC[C@@H]2CCCO2)cc1` [Example 3-32] the figure was 130 nM; with `Cc1cc(CNCc2ccc3c(c2)CC[C@H](NC(=O)c2ccc(OC[C@@H]4CCCO4)cc2)C3)no1` [Example 3-71], 750 nM; with `O=C(N[C@H]1CCc2cc(CN3CCn4cnnc4C3)ccc2C1)c1ccc(OC[C@@H]2CCCO2)cc1` [Example 3-120], 2410 nM.
With `CC(C)(C)CNCCc1ccc2c(c1)CC[C@H](NC(=O)c1ccc(OC[C@@H]3CCCO3)cc1)C2` [Example 3-135] the figure was 150 nM; with `COC(=O)CNCc1ccc2c(c1)CC[C@H](NC(=O)c1ccc(OC[C@@H]3CCCO3)cc1)C2` [Example 3-26], 360 nM; with `CC1(COc2ccc(C(=O)N[C@H]3CCc4cc(CN5CCCCCC5)ccc4C3)cc2)COC1` [Example 9-2], 1280 nM.
Consider `O=C(N[C@H]1CCc2cc(CN3CCCCCC3)ccc2C1)c1ccc(OCC2OCCO2)cc1` [Example 9-3], for which the half-maximal inhibitory concentration (IC50) was determined as 170 nM.
`CC1CCN([C@H](C)c2ccc3c(c2)CC[C@H](NC(=O)c2ccc(OC[C@@H]4CCCO4)cc2)C3)CC1` [Example 10, N-{(S)-6-[(R)-1-(4-Methylpiperidin-1-yl)ethyl]-1,2,3,4-tetrahydronaphthalen-2-yl}-4-[(S)-1-(tetrahydrofuran-2-yl)methoxy]benzamide]: the IC50 came out at 110 nM.
For the compound `O=C1CN(Cc2ccc3c(c2)CC[C@H](NC(=O)c2ccc(OC[C@@H]4CCCO4)cc2)C3)CCN1` [Example 3-72], the IC50 stood at 1850 nM.
On to `O=C(N[C@H]1CCc2cc(CN3CCC4(CCCC4)C3)ccc2C1)c1ccc(OC[C@@H]2CCCO2)cc1` [Example 3-194], for which the 50% inhibitory concentration (IC50) is 90 nM.
As for `N#CC1CCN(Cc2ccc3c(c2)CC[C@H](NC(=O)c2ccc(OC[C@@H]4CCCO4)cc2)C3)CC1` [Example 3-84], the IC50 stood at 170 nM.
On to `O=C(N[C@H]1CCc2cc(CNCCCN3CCCC3=O)ccc2C1)c1ccc(OC[C@@H]2CCCO2)cc1` [Example 3-33], for which the IC50 was 270 nM.
With `COC1CCN(Cc2ccc3c(c2)CC[C@H](n2ccc4cc(OC[C@@H]5CCCO5)ccc4c2=O)C3)CC1` [Example 13, 2-[(S)-6-(4-Methoxypiperidin-1-ylmethyl)-1,2,3,4-tetrahydronaphthalen-2-yl]-6-[(S)-1-(tetrahydrofuran-2-yl)methoxy]-2H-isoquinolin-1-one] the figure was 1400 nM.
Turning to `O=C(N[C@H]1CCc2cc(CN3CCCCCC3)ccc2C1)c1ccc(OC[C@@H]2CCCO2)c(F)c1` [Example 12, N-((S)-6-Azepan-1-ylmethyl-1,2,3,4-tetrahydronaphthalen-2-yl)-3-fluoro-4-[(S)-1-(tetrahydrofuran-2-yl)methoxy]benzamide], the IC50 was 300 nM.
Regarding `O=C(N[C@H]1CCc2cc(CN3CCCCCC3)ccc2C1)c1ccc(OCC2CCCCO2)cc1` (stereo partly drawn) [Example 9-5], the IC50 is 310 nM.
Regarding `CC(=O)N1CCN(Cc2ccc3c(c2)CC[C@H](NC(=O)c2ccc(OC[C@@H]4CCCO4)cc2)C3)CC1` [Example 3-44], the IC50 turned out to be 310 nM.
With `CN(C(=O)c1ccc(OC[C@@H]2CCCO2)cc1)[C@H]1CCc2cc(CN3CCCC3)ccc2C1` [Example 2, N-Methyl-N-((S)-6-pyrrolidin-1-ylmethyl-1,2,3,4-tetrahydronaphthalen-2-yl)-4-[(S)-1-(tetrahydrofuran-2-yl)methoxy]benzamide] the figure was 670 nM; with `CC(C)CN1CCCC(c2ccc3c(c2)CC[C@H](NC(=O)c2ccc(OC[C@@H]4CCCO4)cc2)C3)C1` (stereo partly drawn) [Example 8-3], 230 nM.
Regarding `O=C(N[C@H]1CCc2cc(CN3CC[C@@H](F)C3)ccc2C1)c1ccc(OC[C@@H]2CCCO2)cc1` [Example 3-86], the IC50 was 120 nM.
In the case of `COc1ccc(CNCc2ccc3c(c2)CC[C@H](NC(=O)c2ccc(OC[C@@H]4CCCO4)cc2)C3)cn1` [Example 3-103], the IC50 came out at 200 nM.
`Cc1ccc(CNCc2ccc3c(c2)CC[C@H](NC(=O)c2ccc(OC[C@@H]4CCCO4)cc2)C3)o1` [Example 3-51]: the IC50 is 190 nM.
In the case of `CN1CCCCC1c1ccc2c(c1)CC[C@H](NC(=O)c1ccc(OC[C@@H]3CCCO3)cc1)C2` (stereo partly drawn) [Example 8-8], the IC50 was 180 nM.
With `CC1(CNCc2ccc3c(c2)CC[C@H](NC(=O)c2ccc(OC[C@@H]4CCCO4)cc2)C3)CCCC1` [Example 3-195], the IC50 was determined as 110 nM.
Consider `O=C(N[C@H]1CCc2cc(CN3CCC(O)CC3)ccc2C1)c1ccc(OC[C@@H]2CCCO2)cc1` [Example 3-40], for which the IC50 turned out to be 180 nM.
For `O=C(N[C@@H]1CCc2cc(CN3CCCC3)ccc2C1)c1ccc(OC[C@@H]2CCCO2)cc1` [Example 3-2], the IC50 came out at 3290 nM.
Take `CN1CCN(Cc2ccc3c(c2)CC[C@H](NC(=O)c2ccc(OC[C@@H]4CCCO4)cc2)C3)CC1` [Example 3-37]: the IC50 was 340 nM.
With `CC(C)CCN[C@H](C)c1ccc2c(c1)CC[C@H](NC(=O)c1ccc(OC[C@@H]3CCCO3)cc1)C2` [Example 8-16], the IC50 was 120 nM.
With `O=C(N[C@H]1CCc2cc(CNCC3OCCO3)ccc2C1)c1ccc(OC[C@@H]2CCCO2)cc1` [Example 3-61] the figure was 300 nM.
With `O=C(N[C@H]1CCc2cc([C@@H]3CCCN(C4CCOCC4)C3)ccc2C1)c1ccc(OC[C@@H]2CCCO2)cc1` [Example 8-26] the figure was 230 nM.
Consider `O=C(N[C@H]1CCc2cc(CN3C[C@H]4CC[C@H](CC4)C3)ccc2C1)c1ccc(OC[C@@H]2CCCO2)cc1` [Example 3-48], for which the IC50 was determined as 210 nM.
In the case of `O=C(N[C@H]1CCc2cc(CN3C[C@@H]4C[C@H]3CO4)ccc2C1)c1ccc(OC[C@@H]2CCCO2)cc1` [Example 3-100], the concentration for half-maximal inhibition (IC50) came to 330 nM.
In the case of `O=C(N[C@H]1CCc2cc(CN3CCCOCC3)ccc2C1)c1ccc(OC[C@@H]2CCCO2)cc1` [Example 3-77] it was 120 nM; in that of `O=C(N[C@H]1CCc2cc(CN3CC4CCCC4C3)ccc2C1)c1ccc(OC[C@@H]2CCCO2)cc1` (stereo partly drawn) [Example 3-14], 100 nM.
